According to US8465939B2, “Aging-related circulating particle-associated lipoprotein B oxidase (apoBNOX) and inhibitors thereof” (Nox Technologies, Inc., priority 2010, dated 2013):
Entries after “also recorded” stand apart in the source; their conditions may differ.

Columns and labels:
arNOX = settings: cited from earlier work
apoBNOX = assay: superoxide dismutase-resistant apoBNOX activity by ferricytochrome c reduction; assay type: biochemical; settings: for inhibition of apoBNOX: apoBNOX associated with lipoprotein particles
Procedure: Reduction of ferricytochrome c by superoxide was employed as the measure of superoxide dismutase-resistant apoBNOX activity (Mayo, L. A. and Curnutte, J., 1990, Meth. Enzyme. 186: 567-575; Butler, J. et al., 1982, J. Biol. Chem. 257: 10747-10750). The assay consists of 150 μl buffy coats in PBSG buffer (8.06 g NaCl, 0.2 g KCl, 0.18 g Na2HPO4, 0.13 g CaCl2, 0.1 MgCl2, 1.35 g glucose dissolved in 1000 ml deionized water, adjusted to pH 7.4, filtered and stored at 4° C.). Rates were determined using an SLM Aminco DW-2000 spectrophotometer (Milton Roy, Rochester, N.Y.) in the dual wave length mode of operation with continuous measurements over 1 min every 1.5 min. After 45 min, test compounds were added and the reaction was continued for an additional 45 min. After 45 min, a millimolar extinction coefficient of […] was used for reduced ferricytochrome c.
arNOX activity was assayed from measurements of superoxide production based on a standard method where reduction of ferricytochrome c was monitored from the increase in absorbance at 550 nm with reference at 540 nm (Butler et al., 1982). As a further check for the specificity of the apoBNOX activity, 60 units of superoxide dismutase (SOD) were added near the end of the assay to ascertain that the rate returned to base line. Rates were determined over 1 min at intervals of 1.5 min using a SLM Aminco DW 2000 spectrophotometer (Milton Roy, Rochester, N.Y.) in the dual wavelength mode of operation. An extinction coefficient of 19.1 mM^−1 cm^−1 was used for reduced ferricytochrome c.

recombinant arNOX SF2 = target: T1, recombinant arNOX SF2 (Homo sapiens, UniProt Q99805, F637E); assay: Lipid oxidation catalyzed by H2O2 formed from recombinant arNOX-generated superoxide (SF2); assay type: biochemical; settings: SF2 + lecithin + SOD + inhibitor, incubated 2 h; without inhibitor 0.12, without SOD 0.06
T1 construct: made in house; host or cells: Escherichia coli BL21 (DE3), pET11a
Text: FIG. 4 illustrates the role of apoBNOX in the oxidation of the apoB protein associated with low density lipoprotein particles and the recognition of the oxidized LDL by macrophages, resulting in the formation of foam cells leading to fatty streaks and atherogenic plaques. In this scheme, the apoBNOX binds selectively to lipoprotein particle-associated apoB and withdraws electrons to form superoxide. The superoxide thus generated is converted to hydrogen peroxide by the action of superoxide dismutase. The hydrogen peroxide thus generated attacks lipids (particularly phosphatidylcholine) of the low density lipoprotein particles to form reactive lipid peroxides that then attack key lysine residues in the apoB. Evidence that superoxide generated by arNOX when converted to hydrogen peroxide is capable of oxidizing phosphatidylcholine is given by the data of Table 2.

[1] = Hydrophilicity / solubility; assay type: physicochemical
Text: (§1) This last characteristic might be problematic if hydroxytyrosol or tyrosol are pretended to be used in fat-based food products or supplements. Oxidation of hydroxytyrosol and tyrosol clearly affect the stability and preservation of both compounds. The hydroxytyrosol and tyrosol derivatives presented in this invention avoid these two problems. The hydroxyl groups on these derivatives are protected from oxidation by preparing hydroxytyrosol or tyrosol fatty acid esters. When compared to hydroxytyrosol and tyrosol, the hydroxytyrosol and tyrosol fatty acid esters are much more resistant against oxidation. At the same time, depending on the length of the fatty acid chain of the fatty acid esters, their solubility in fat-based food products will be increased. Hydroxytyrosol or tyrosol esters with a wide range of solubilities can be prepared, from totally water-soluble hydroxytyrosol or tyrosol derivatives when acetic acid is used in the formation of the ester to totally oil-soluble hydroxytyrosol or tyrosol derivatives when oleic acid is used in the formation of the ester. The hydroxytyrosol and tyrosol derivatives are hydrolyse in the intestinal tract of rats to their two components, hydroxytyrosol or tyrosol and the fatty acid. […] This implies that, after their hydrolysis, mentioned fatty acid esters can act as antioxidants to reduce or ameliorate diseases with an oxidative stress origin.

[2] = Hydrolysis and absorption in rats; assay type: in vivo
Text: as §1

Sensitivity to oxidation = assay type: physicochemical
Text: as §1

Compound | inhibition of apoBNOX (apoBNOX) | inhibition of arNOX activity of aging cells (arNOX) | other results
COC1=C(OC)C(=O)C(C/C=C(\C)CC/C=C(\C)CC/C=C(\C)CC/C=C(\C)CC/C=C(\C)CC/C=C(\C)CC/C=C(\C)CC/C=C(\C)CC/C=C(\C)CCC=C(C)C)=C(C)C1=O [CoQ, coenzyme Q10] | resist inhibition | inhibited | Lipid oxidation, Relative units (recombinant arNOX SF2): 0.06 cm; inhibition of apoBNOX (apoBNOX; listed as CoQ10): relatively ineffective
OCCc1ccc(O)c(O)c1 [Hydroxytyrosol, hydroxytyrosol] |  |  | hydrophilicity / solubility [1]: hydrophilic; absorption ([2]; rats, after hydrolysis of the esters, detected in plasma and cerebrospinal fluid): rapidly absorbed
OCCc1ccc(O)cc1 [Tyrosol, 4-hydroxyphenethyl alcohol] |  |  | hydrophilicity / solubility [1]: hydrophilic; absorption ([2]; rat, in vivo): rapidly absorbed; sensitivity to oxidation (Sensitivity to oxidation): sensitive to oxidation; apoBNOX activity, % inhibition (apoBNOX; 100 μM tyrosol): 70%
O=c1cc(-c2ccc(O)cc2)oc2cc(O)cc(O)c12 [apigenin] | resist inhibition |  | 
superoxide dismutase | resist inhibition; also recorded: resistant to inhibition |  | 

Second part, led by results:

inhibition of apoBNOX (apoBNOX) | Compound | inhibition of arNOX activity of aging cells (arNOX) | other results
relatively ineffective | COC1=C(OC)C(=O)C(C/C=C(\C)CC/C=C(\C)CC/C=C(\C)CC/C=C(\C)CC/C=C(\C)CC/C=C(\C)CC/C=C(\C)CCC=C(C)C)=C(C)C1=O [CoQ8] | inhibited | 
relatively ineffective | COC1=C(OC)C(=O)C(C/C=C(\C)CC/C=C(\C)CC/C=C(\C)CC/C=C(\C)CC/C=C(\C)CC/C=C(\C)CC/C=C(\C)CC/C=C(\C)CCC=C(C)C)=C(C)C1=O [CoQ9] | inhibited | 
